A short description of this data set: Non-dairy cream filling evaluation (Example 16). To be noted: 0.01% (w/w) in liquid preparation. Here is the method: Polysorbate 60 has been replaced by rhamnolipids in non-dairy cream filling for pastries.
The following preparation process was used: The starch is mixed with the water, sugar and glucose syrup are added together with the emulsifier and titanium dioxide. After mixing until homogenous all the other ingredients are added and mixed again. The total mixture is heated until jellification of the starch.
Bake stability (180° C., 30 minutes), color, taste, speed of incorporation of fat into the mixture and possible separation of fat during conservation are evaluated (Table 16).

The record followed here is patent US20060233935A1, “Rhamnolipids in bakery products” (priority 2002, published 2006).

With Polysorbate 60, the Stability during conservation result is listed as “Stable during”.
